Where a name gives a salt, the structure may show the parent alone.
Legend:
Morning-glory = experiment: Post-emergence herbicide test, morningglory; assay type: in vivo, Ipomoea purpurea
Experimental: (§1) In this evaluation, each compound to be tested was dissolved in a 1:1 mixture of acetone and ethanol containing a small amount of Toximul R and Toximul S (each a sulfonate/nonionic blend produced by Stepan Chemical Company, Northfield, Illinois). The solution was then diluted with deionized water to a composition of the following concentrations, by weight: Plant species used as indicators of herbicidal activity were planted in galvanized pans (flats) 31.5 cm. long, 21.5 cm. wide, and 8.0 cm. deep. The bottoms of the flats had holes to facilitate drainage. The soil used was a 1:1 ratio by volume of masonry sand and shredded top soil. Seeds of seven indicator species were planted in rows perpendicular to the long axis of the flat, one species per row, and covered with 0.5 to 1.0 cm. of sterilized soil. Indicator species and approximate number of seeds planted were as follows: Flats that were to receive preemergence treatments were planted one day prior to, or on the same day treatments were applied. Flats that were to receive postemergence treatments were planted 9 days prior to treatment and placed in a growth chamber until the day of treatment. In the growth chamber, flats received 12 to 18 hours of light per day and were subject to temperatures of 75° to 85° F. The formulated test compound was applied uniformly to the indicator species with a modified DeVilbiss atomizer using air pressure of 3 to 5 psi. Each flat received 12.5 ml. of spray solution which was equal to 200 gallons/acre total spray volume. Plants were maintained in a greenhouse after treatment. Herbicidal effects of chemicals were evaluated by two injury rating systems 18 days after preemergence applications and 14 days after postemergence applications. The degree of plant injury was based on a 1 to 5 scale and a single numerical rating was assigned to each test species as follows: […]

Velvetleaf = experiment: Pre-emergence herbicide test, velvetleaf; assay type: in vivo, Abutilon theophrasti
Experimental: as §1

Sugar Beet = experiment: Pre-emergence herbicide test, sugar beet; assay type: in vivo
Experimental: as §1, with “soil.” for “soil. Seeds of seven indicator species were planted in rows perpendicular to the long axis of the flat, one species per row, and covered with 0.5 to 1.0 cm. of sterilized soil. Indicator species and approximate number of seeds planted were as follows:”

Mexican bean beetle = Mexican bean beetle test; assay type: in vivo, Epilachna varivestis; conditions: 4 days; on Mexican Bean Beetle Stom. (mortality rating): ranges in brackets are in %
Experimental: In this evaluation, each compound to be tested was dissolved in a 1:1 mixture of acetone and ethanol containing a small amount of Toximul R and Toximul S (each a sulfonate/nonionic blend produced by Stephan Chemical Company, Northfield, Ill.). The solution was then diluted with distilled water to a concentration of 1000 ppm of test compound.
This test was conducted with second instar larvae of Epilachna varivestis Mulsant, order Coleoptera, family Coccinellidae. Larvae for the test, of uniform size and not molting, were picked by hand from flats of Bountiful snap beans on which they were grown and were placed in 100×20 mm plastic petri dishes for testing. Five larvae were used per replicate.
Two 4- to 6-day-old Bountiful green bean primry leaves (approximately 6 sq. in. of leaf surface) were used for each replicate. Two replicates were run per compound.
[…] […] The nozzle of the atomizer was held 12 to 18 inches from the leaves and was supplied with 5-6 psi air pressure. The atomizer was rinsed with acetone after each compound was sprayed. The plants were allowed to dry. The leaves were then cut from the plants and placed in the petri dishes containing the bean beetle larvae. A small wad of wet cellucotton was added to each dish to help prevent the leaves from wilting.
After 4 days, a mortality count was made and the amount of feeding was noted. Moribund larvae were counted as dead.

Wild Oat = experiment: Pre-emergence herbicide test, wild oat; assay type: in vivo
Experimental: as §1, with “soil.” for “soil. Seeds of seven indicator species were planted in rows perpendicular to the long axis of the flat, one species per row, and covered with 0.5 to 1.0 cm. of sterilized soil. Indicator species and approximate number of seeds planted were as follows:”

Lambsquarter = experiment: Pre-emergence herbicide test, lambsquarter; assay type: in vivo
Experimental: as §1, with “soil.” for “soil. Seeds of seven indicator species were planted in rows perpendicular to the long axis of the flat, one species per row, and covered with 0.5 to 1.0 cm. of sterilized soil. Indicator species and approximate number of seeds planted were as follows:”

| SMILES | plant injury rating (Morning-glory; 1/4 lb/A) | plant injury rating (Morning-glory; 2 lb/A) | plant injury rating (Morning-glory; 4 lb/A) | plant injury rating (Morning-glory; 8 lb/A) | plant injury rating (Velvetleaf; 1/2 lb/A) | plant injury rating (Velvetleaf; 1 lb/A) | plant injury rating (Velvetleaf; 2 lb/A) | plant injury rating (Velvetleaf; 8 lb/A) | plant injury rating (Sugar Beet; 1/2 lb/A) | plant injury rating (Sugar Beet; 2 lb/A) | Mexican Bean Beetle Stom. (mortality rating) (Mexican bean beetle; 1000 ppm) | plant injury rating (Wild Oat; 1/2 lb/A) | plant injury rating (Wild Oat; 1 lb/A) | plant injury rating (Wild Oat; 2 lb/A) | plant injury rating (Lambsquarter; 1/2 lb/A) | plant injury rating (Lambsquarter; 2 lb/A) | plant injury rating (Morning-glory; 1 lb/A) | also measured |
| --- | --- | --- | --- | --- | --- | --- | --- | --- | --- | --- | --- | --- | --- | --- | --- | --- | --- | --- |
| O=[N+]([O-])c1cc(C(F)(F)F)cc2c1NC(O)(C(F)(F)C(F)F)N2 (stereo not shown) [Example 2, 2-Hydroxy-2-(1,1,2,2-Tetrafluoroethyl)-4-Nitro-6-(Trifluoromethyl)Benzimidazoline, Sodium Salt, and Hydrate] | 2B | 3BS | 4BS | 5D | 1 (no injury) | 1 (no injury) | 2S | 5D | 2S | 5D | 3 (100) | 1 (no injury) | 1 (no injury) | 2 (slight injury) | 2S | 5D |  | plant injury rating (Morning-glory; 1/2 lb/A): 2B; plant injury rating (Velvetleaf; 1/4 lb/A): 1 (no injury); plant injury rating (Velvetleaf; 4 lb/A): 4BS; plant injury rating (Sugar Beet; 1/4 lb/A): 1 (no injury); plant injury rating (Sugar Beet; 4 lb/A): 5N; Mexican Bean Beetle Feed. (feeding rating) (Mexican bean beetle; 100 ppm): 0 (none of the leaves eaten); Mexican Bean Beetle Stom. (mortality rating) (Mexican bean beetle; 100 ppm): 3 (100); plant injury rating (Wild Oat; 1/4 lb/A): 1 (no injury); plant injury rating (Wild Oat; 4 lb/A): 5 (death); plant injury rating (Lambsquarter; 1/4 lb/A): 1 (no injury); plant injury rating (Lambsquarter; 4 lb/A): 5D |
| O=[N+]([O-])c1cc(Cl)cc2c1NC(O)(C(F)F)N2 (stereo not shown) [Example 5, 2-Hydroxy-2-(Difluoromethyl)-4-Nitro-6-Chlorobenzimidazoline, Calcium Salt] |  | 2BS | 3BS | 4BS |  |  |  | 3RS |  |  | 3 (100) |  |  |  |  |  | 2BS |  |
| O=[N+]([O-])c1cc(C(F)(F)F)cc2c1NC(O)(C(F)(F)C(F)F)N2O (stereo not shown) [Example 12, 1,2-Dihydroxy-2-(1,1,2,2-Tetrafluoroethyl)-4-Nitro-6-(Trifluoromethyl)Benzimidazoline] | 1 (no injury) | 3BS |  | 2B | 1 (no injury) | 1 (no injury) | 1 (no injury) | 3BS | 1 (no injury) | 3S | 3 (100) | 1 (no injury) | 1 (no injury) | 2B | 1 (no injury) | 3S | 3BS | plant injury rating (Morning-glory; 1/8 lb/A): 1 (no injury); plant injury rating (Sugar Beet; 1 lb/A): 1 (no injury); plant injury rating (Lambsquarter; 1 lb/A): 3SB |

Source: patent US4265901A, “2-Oxybenzimidazoline compounds” (priority 1979, dated 1981)
